In experiment [1] the test system is MCF7. The experiment is described as follows: Antiproliferative activity against human MCF7 assessed as inhibition of cell viability incubated for 72 hrs by CCK-8 assay. Type of experiment: functional, cell-based. As to conditions: MCF7, 72 h.
For experiment [2], the system named is T47D. Nature of the experiment: Antiproliferative activity against human T47D assessed as inhibition of cell viability incubated for 72 hrs by CCK-8 assay. Type of experiment: functional, cell-based.
Experiment [3] has as its system HCT-116. The experiment is described as follows: Antitumor activity against human HCT-116 cells assessed as reduction in cell viability incubated for 48 hrs by MTT assay. Type of experiment: functional, cell-based. To be noted: HCT-116, 48 h.
In experiment [4] the test system is Huh-7. Nature of the experiment: Antitumor activity against human Huh-7 cells assessed as reduction in cell viability incubated for 48 hrs by MTT assay. To be noted: Huh-7, 48 h. It counts as functional, cell-based.
For experiment [5], the system named is MCF7. The experiment is described as follows: Antitumor activity against human MCF7 cells assessed as reduction in cell viability incubated for 48 hrs by MTT assay. Type of experiment: functional, cell-based. To be noted: MCF7, 48 h.
Experiment [6] has as its system A549. The experiment is described as follows: Antitumor activity against human A549 cells assessed as reduction in cell viability incubated for 48 hrs by MTT assay. Type of experiment: functional, cell-based. As to conditions: A549, 48 h.
The nature of experiment [7]: Antitumor activity against mouse RIL-175 cells assessed as reduction in cell viability incubated for 48 hrs by MTT assay. It counts as functional, cell-based. As to conditions: RIL-175, 48 h.
Experiment [8] is described as follows: Non-competitive inhibition of bovine heart mitochondrial F0F1-ATP synthase incubated for 25 mins by ATPase assay. Type of experiment: mitochondria, Bos taurus, Mitochondria.
The subject of experiment [9] is A549. Nature of the experiment: Antiproliferative activity against human A549 cells assessed as reduction in cell proliferation incubated for 48 hrs by xCELLigence RTCA system analysis. Type of experiment: functional, cell-based. As to conditions: A549, 48 h.
Experiment [10] concerns CL1-0. The experiment is described as follows: Antiproliferative activity against human CL1-0 cells assessed as reduction in cell proliferation incubated for 48 hrs by xCELLigence RTCA system analysis. Type of experiment: functional, cell-based. As to conditions: CL1-0, 48 h.
The test system of experiment [11] is HeLa S3. The experiment is described as follows: Anticancer activity against human HeLa S3 cells assessed as reduction in cell viability incubated for 48 hrs by WST-8 assay. It counts as functional, cell-based. As to conditions: HeLa S3, 48 h.
Experiment [12] can be described thus: Anticancer activity against rat Ad12-3Y1-W5 cells assessed as reduction in cell viability incubated for 72 hrs by MTT assay. It counts as functional, cell-based. As to conditions: Ad12-3Y1-W5, 72 h.
Experiment [13] is described as follows: Anticancer activity against rat Ad12-3Y1-Z11 cells assessed as reduction in cell viability incubated for 72 hrs by MTT assay. It counts as functional, cell-based. As to conditions: Ad12-3Y1-Z11, 72 h.
The nature of experiment [14]: Anticancer activity against rat Ad12-3Y1-Z13 cells assessed as reduction in cell viability incubated for 72 hrs by MTT assay. It counts as functional, cell-based. To be noted: Ad12-3Y1-Z13, 72 h.
Experiment [15] in a line: Anticancer activity against rat Ad12-3Y1-Z19 cells assessed as reduction in cell viability incubated for 72 hrs by MTT assay. It counts as functional, cell-based. To be noted: Ad12-3Y1-Z19, 72 h.
A short description of experiment [16]: Anticancer activity against rat E1A-3Y1-1 cells assessed as reduction in cell viability incubated for 72 hrs by MTT assay. Type of experiment: functional, cell-based. To be noted: E1A-3Y1-1, 72 h.
Experiment [17] in a line: Anticancer activity against rat E1A-3Y1-2 cells assessed as reduction in cell viability incubated for 72 hrs by MTT assay. Type of experiment: functional, cell-based. To be noted: E1A-3Y1-2, 72 h.
Experiment [18] in a line: Anticancer activity against rat E1A-3Y1-3 cells assessed as reduction in cell viability incubated for 72 hrs by MTT assay. It counts as functional, cell-based. To be noted: E1A-3Y1-3, 72 h.
The nature of experiment [19]: Inhibition of bovine heart mitochondrial F0F1-ATP synthase assessed as reduction in NADH oxidation for 40 mins by MitoTox Complex V OXPHOS activity microplate assay. It counts as mitochondria, Bos taurus, Mitochondria.
Experiment [20] can be described thus: Inhibition of thrombin-induced hyperpermeability of human HMEC-1 cells at 10 uM preincubated for 20 mins followed by thrombin addition and measured for 60 mins by transwell assay. As to conditions: HMEC-1, 1.333 h, time 80 min. Type of experiment: functional.

`CCC(C)N(C)C(=O)c1cc2ccccc2c(-c2ccccc2Cl)n1` (stereo not given) [PK-11195]: the IC50 in experiment [1] worked out at 0.0054 µM; in experiment [2], 0.006 µM.

`CSCC[C@H](NC(=S)[C@@H](NC(=O)C(C)=O)C(C)C)C(=S)N[C@@H](C)C(=O)N[C@@H](C)C(=S)N[C@@H](C)C(=S)N[C@@H](C)C(=O)N[C@H]1C(=O)N[C@@H](C(C)C)C(=O)N[C@@H](C)C(=O)N[C@@H](Cc2ccccc2)C(=O)N[C@@H](C(O)c2cn(C)c[n+]2C)C(=O)N/C=C\SC1C` (stereo not given in full): the IC50 came to 0.176 µM in experiment [3]; 0.141 µM in [4]; 0.48 µM in [5]; 1.16 µM in experiment [6]; 0.157 µM in [7].

Consider `NCCc1ccc(Oc2ccc(O)cc2)c(I)c1`, for which the IC50 in experiment [8] was 27.5 µM.

Turning to `COc1cc(=O)oc(/C=C/C=C/C=C/C(C)=C/[C@]2(C)O[C@H](C)[C@](C)(O)[C@H]2O)c1C`, the IC50 in experiment [9] and in experiment [10] was 1.5 µM in each case.

As to `CC[C@H](C)[C@@H]1NC(=O)[C@H](NC(=O)[C@H](C)NC(=S)[C@H](C)NC(=S)[C@H](C)NC(=S)[C@H](C)NC(=S)[C@H](CCSC)NC(=S)[C@@H](NC(=O)C(C)=O)C(C)C)CS/C=C\NC(=O)[C@H](C(O)c2cn(C)c[n+]2C)NC(=O)[C@H](CC(C)C)NC(=O)[C@H](C)NC1=O` (stereo not given in full), the IC50 in experiment [11] worked out at 0.36 µM; in experiment [12], 0.016 µM; in experiment [13], 0.016 µM; in [14], 0.016 µM; in [15] it was 0.016 µM; in experiment [16], 0.021 µM. For the same compound, the 50% inhibitory concentration (IC50) in experiment [17] and in experiment [18] was 0.021 µM each time.

Regarding `C=C1CC[C@@]2(OC1)O[C@H]1C[C@H]3[C@@H]4CC=C5C[C@H](O)C[C@H](O[C@@H]6OC[C@H](O)[C@H](O)[C@H]6O[C@@H]6O[C@@H](C)[C@H](O)[C@@H](O)[C@H]6O)[C@]5(C)[C@H]4CC[C@]3(C)[C@H]1[C@@H]2C`, the inhibition constant (Ki) in [19] turned out to be 10 µM. For the same compound, at 10 µM the inhibition in experiment [20] was 41.9%.

These data come from ChEMBL document CHEMBL5230122, “Natural products and other inhibitors of F1FO ATP synthase” (Eur J Med Chem, 2020).
